Reference: patent US9770026B2, “Substituted pyrimidine compound and uses thereof” (Shenyang Sinochem Agrochemicals R&D Co., Ltd., priority 2012, dated 2017)

Assays:
cucumber downy mildew = test: protectant activity in vivo against cucumber downy mildew; settings: Cucumis sativus, 168 h, protectant activity
wheat powdery mildew = test: protectant activity in vivo against wheat powdery mildew; settings: Triticum aestivum, 168 h, protectant activity
rice blast = test: microbe, parasite or virus in culture; type: cell-based; settings: Pyricularia oryzae, read-out: inhibition rate against rice blast, 25 ppm, in vitro
Diamond back moth = test: insecticidal activity against diamond back moth, airbrush spray; type: in vivo; settings: 72 h; for pest or weed control at 10 µg/mL: 10 mg/L; for pest or weed control at 100 µg/mL: 100 mg/L; for pest or weed control at 600 µg/mL: 600 mg/L
In short: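 Airbrush leaf-disc spray test: both faces of 2 cm cabbage discs received 0.5 ml of test solution at 0.7 kg/cm^2. Solutions were made in acetone:methanol (1:1) and brought to concentration with 0.1% Tween 80 in water. Ten second-instar larvae per disc, triplicates, were held at 25° C and 60˜70% R.H., with mortality recorded at 72 hrs.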

[1] = test system: Green peach aphids (Myzus Persicae Sulzer); test: bioactivity test against green peach aphid, airbrush foliar spray; type: in vivo; settings: Myzus persicae, foliar, 48 h, contrastive test, read-out: Insecticidal activity against peach aphid (%); for pest or weed control at 5 µg/mL: 5 mg/L; for pest or weed control at 10 µg/mL: 10 mg/L; for pest or weed control at 100 µg/mL: 100 mg/L; for pest or weed control at 600 µg/mL: 600 mg/L
In short: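 Aphids (15-30 per cabbage leaf disc) on moist filter paper were airbrush-sprayed at 10 psi, 0.5 mL, with compound from acetone:methanol (1:1) diluted in water with 0.1% tween 80. Held at 25±1 C, 60±5% RH; survivors counted after 48 hrs to give death rates.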

armyworm = test: bioactivity test against armyworm, airbrush spray; type: in vivo; settings: 72 h, 600 mg/L; read-out: Insecticidal activity against armyworm (%)
carmine spider mite = test: bioactivity test against carmine spider mite, airbrush spray; type: in vivo; settings: Tetranychus cinnabarinus, 72 h, contrastive test, read-out: Insecticidal activity against carmine spider mite (% ); for pest or weed control at 10 µg/mL: 10 mg/L; for pest or weed control at 100 µg/mL: 100 mg/L; for pest or weed control at 600 µg/mL: 600 mg/L
In short: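 Broadbean seedlings infested with adult mites were sprayed with compound (acetone/methanol stock diluted in 0.1% Tween 80 water) by airbrush at 0.7 kg/cm^2, 0.5 ml. Three replicates were run. Mortality was scored after 72 hrs.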

corn rust = test: protectant activity in vivo against corn rust; settings: Zea mays, 168 h, protectant activity; for pest or weed control at 400 µg/mL: read-out: control effect against corn rust (%), 400 mg/L

Row | SMILES | inhibition at 25 ppm (rice blast) [%] | pest or weed control at 10 µg/mL (Diamond back moth) [%] | pest or weed control at 100 µg/mL (Diamond back moth) [%] | pest or weed control at 600 µg/mL (Diamond back moth) [%] | pest or weed control at 5 µg/mL [1] [%] | pest or weed control at 10 µg/mL [1] [%] | pest or weed control at 100 µg/mL [1] [%] | pest or weed control at 600 µg/mL [1] [%] | pest or weed control at 600 µg/mL (armyworm) [%] | pest or weed control at 10 µg/mL (carmine spider mite) [%] | pest or weed control at 100 µg/mL (carmine spider mite) [%] | pest or weed control at 600 µg/mL (carmine spider mite) [%] | pest or weed control at 400 µg/mL (corn rust) [%] | further results
1 | FC(F)(F)c1ccc(Oc2ccc(CCNc3ncnc4ccccc34)cc2)cc1 [CK11, reference compound] | 0 | 5 | 55 | 86 | 25 | 85 | 98 | 100 | 29 | – | – | – | – | pest or weed control at 25 µg/mL (cucumber downy mildew; read-out: control effect against cucumber downy mildew (%), 25 mg/L): 0%; pest or weed control at 50 µg/mL (cucumber downy mildew; read-out: control effect against cucumber downy mildew (%), 50 mg/L): 0%; pest or weed control at 100 µg/mL (cucumber downy mildew; read-out: control effect against cucumber downy mildew (%), 100 mg/L): 30%; pest or weed control at 400 µg/mL (cucumber downy mildew; read-out: control effect against cucumber downy mildew (%), 400 mg/L): 85%; pest or weed control at 6.25 µg/mL (wheat powdery mildew; read-out: control effect against wheat powdery mildew (%), 6.25 mg/L): 0%; pest or weed control at 25 µg/mL (wheat powdery mildew; read-out: control effect against wheat powdery mildew (%), 25 mg/L): 40%; pest or weed control at 100 µg/mL (wheat powdery mildew; read-out: control effect against wheat powdery mildew (%), 100 mg/L): 60%; pest or weed control at 400 µg/mL (wheat powdery mildew; read-out: control effect against wheat powdery mildew (%), 400 mg/L): 100%; pest or weed control at 2.5 µg/mL ([1]; 2.5 mg/L): 0%
2 | CCc1ncnc(NCc2ccc(Oc3ncc(C(F)(F)F)cc3Cl)cc2)c1Cl [CK38, reference compound] | 0 | 5 | 21 | 100 | – | 0 | 24 | 100 | 0 | 14 | 37 | 99 | 0 | –
3 | CCc1ncnc(NC(C)c2ccc(Oc3ncc(C(F)(F)F)cc3Cl)cc2)c1Cl (stereo not drawn) [CK39, reference compound] | 0 | 0 | 20 | 80 | 0 | 2 | 86 | 100 | 0 | 16 | 37 | 100 | 100 | pest or weed control at 0.4 µg/mL (corn rust; read-out: control effect against corn rust (%), 0.4 mg/L): 0%; pest or weed control at 1.6 µg/mL (corn rust; read-out: control effect against corn rust (%), 1.6 mg/L): 10%; pest or weed control at 6.25 µg/mL (corn rust; read-out: control effect against corn rust (%), 6.25 mg/L): 50%; pest or weed control at 25 µg/mL (corn rust; read-out: control effect against corn rust (%), 25 mg/L): 80%; pest or weed control at 100 µg/mL (corn rust; read-out: control effect against corn rust (%), 100 mg/L): 100%
